Type in all cases: cell-based, human
The subject of experiment [1] is Rac1. Put plainly: Rac1 GTPase pulldown assay (Rac1-GTP level). Particulars: wt-, Ser179Ala and Ser179Glu syndecan-4 cell lines, Gö6976. On the procedure: Rac1 activity was characterised by applying RAC-activation kit purchased from Millipore (Upstate) and it was used according to the manufacturer's prescription. Briefly, p21-binding domain of PAK-1 was fused to agarose beads, which specifically binds to and precipitates Rac-GTP and Cdc42-GTP from cell lysates. Cells were harvested at 70% confluency of 25 ml flasks. The wild type Syndecan-4, Ser179Ala and Ser179Glu cells were treated for 60 minutes with 1 μM PMA (Sigma-Aldrich), or 500 nM rottlerin (Sigma-Aldrich), or 10 nM Gö6976 (Biosource, Camarillo, Calif., USA). The active Rac1 was detected by Western blotting using mouse anti-Rac1 antibody (Upstate). To test whether GST-Pak1-Rac/Cdc42-binding domain could pull syndecan-4 down, the blot was probed with rabbit polyclonal anti-syndecan-4 or mouse monoclonal anti-GFP antibody.

Experiment [2] deals with MCF7 cells. In words: Neuronal differentiation under serum starvation. The note with it: 4-5 weeks, bIII-tubulin marker. On the procedure: FIG. 8. Neuronal differentiation induced by short Syndecan-4 peptides. MCF7 cells were transfected with wild type syndecan-4 (A) and DEGEpC3 (B), respectively. […] Red: b3-tubulin staining. Blue: Hoechst nuclear staining (A). DEGEpC3: […] was joined to GFP.
Short peptides with the sequence […] (SEQ.ID.NO.: 3) and […] (SEQ.ID.NO.: 4) were tested under serum starvation.

The subject of experiment [3] is MCF-7 cells. In words: Cell migration assay (time-lapse) on fibronectin. The note with it: nt-MCF-7 (non-transfected) cells, PMA stimulation, solitary cell migration. On the procedure: The MCF-7 breast adenocarcinoma cells were obtained from ATCC, cultured in DMEM:F12 (Cambrex, Walkersville, Md., USA) supplemented with 10% fetal bovine serum (FBS) (Gibco, Bethesda, Md., USA), otherwise stated. The stably transfected cell lines were propagated in DMEM:F12 medium supplemented with 10% FBS and 200 μg/ml G418 (Cambrex, Walkersville, Md., USA). The cell lines were seeded onto glass coverslips or plastic dishes coated for 2 h with 10 μg/ml fibronectin (Sigma-Aldrich, St. Louis, Mo., USA). Scratch-wound assays were performed on stable transfected Syndecan-4 wild, Ser179Ala and Ser179Glu cells at 80% confluency. The cultures were scratched with a sterile P10 pipette tip 3-4 times in parallel lines. Images were taken 12, 24, 36 and 48 h following wounding.
In the cell migration assay 60% confluent MCF7 cells or the stably transfected lines were stimulated by 1 μM phorbol-12-myristate-13-acetate (PMA; from Sigma-Aldrich St. Louis, Mo., USA), otherwise stated. The images were taken using 10×, 20×0.3 objective at 3-min intervals for 2 h using inverted microscope (Leica) and organized into time-lapse movies in Adobe ImageReady® v. 8.
Results of the previous scratch-wound assay gave a hint that the Ser179Glu cells gained a migratory phenotype. […]

Where “and” joins values, the source holds several entries; their conditions need not be identical. Equal values may be shown once.

With `Cn1c2ccccc2c2c3c(c4c5ccccc5n(CCC#N)c4c21)C(=O)NC3` [Gö6976, reference compound], the “activated Rac1 level” value in experiment [1] was “reduced”.
Take “RMKKKDEGEYDLG (Syndecan-4 sequence) [SEQ.ID.NO.: 3]”: the neuronal differentiation phenotype entry in experiment [2] was “neuron-like phenotypes”.
On the same count and under the same terms, the entry for “RMKKKDEGDYDLG (Syndecan-4 sequence) [SEQ.ID.NO.: 4]” is “neuron-like phenotypes”.
Consider `CCCCCCCCCCCCCC(=O)O[C@@H]1[C@@H](C)[C@@]2(O)[C@@H](C=C(CO)C[C@]3(O)C(=O)C(C)=C[C@@H]23)[C@@H]2C(C)(C)[C@]12OC(C)=O` [PMA, phorbol-12-myristate-13-acetate, reference compound], for which the migration velocity in experiment [3] was 0.3±0.1 μm/min and 0.3 μm/min.
MYRMKKKDEGEYDL [DEGEpC3]: the neuronal differentiation phenotype result in experiment [2] is “neuron-like phenotype”.
